Measured values reported in patent publication US20050222013A1, “Methods for the use of inhibitors of histone deacetylase as synergistic agents in cancer therapy” (Georgetown University, priority 2003, published 2005).

What was measured:
Assay type in all cases: cell-based, human
SQ-20B cells [1] = experiment: Clonogenic survival after ionizing radiation, fit to the single hit multitarget and linear quadratic models; design: α (linear quadratic model) / β (linear quadratic model) / Do (multitarget model radiosensitivity): unit not given here; settings: for Do (multitarget model radiosensitivity) / α (linear quadratic model) / β (linear quadratic model): SQ-20B cells treated with drug at IC50, then gamma radiation
Protocol: Logarithmically growing SQ-20B cells were treated with TSA (about 60 ng/ml) for about 24 h and the medium was replaced with fresh medium. Cells were exposed to a graded dose of gamma radiation. A semi-logarithmic plot of the data for these cells is shown. Clonogenic survival numbers were determined and fit to the single hit multitarget and the linear quadratic models for analysis, measured by clonogenic survival analysis. Points and bars represent mean+/−SEM from triplicate flasks in each experiment.
The effectiveness of a particular treatment can be determined by measuring the radiation survival. Post treatment survival can be studied both in vitro and in vivo. For example, for in vitro determinations, exponentially growing cells can be exposed to known doses of radiation and the survival of the cells monitored. Irradiated cells are plated and cultured for about 14-about 21 days, and the colonies are stained. The surviving fraction is […]. Graphing the surviving fraction on a log scale versus the absorbed dose on a linear scale generates a survival curve. Survival curves generally show an exponential decrease in the fraction of surviving cells at higher radiation doses after an initial shoulder region in which the dose is sublethal. A similar protocol can be used for chemical agents.
Two mathematical models are commonly employed to analyze radiation survival data. A first model is the multi-target model. In this analysis, the reciprocal of the slope of the survival curve is defined as D0, the radiosensitivity of the cell population or tissue under investigation. D0 is the dose required to reduce the surviving fraction to about 37% in the exponential portion of the survival curve. The extrapolation of the linear portion of the curve to the y-intercept is denoted n. The width of the shoulder region is represented by drawing a line from the 100% survival point to the extrapolation line, this width is denoted Dq. Dq is the quasi-threshold dose, or the point at which the reduction in surviving fraction as a function of radiation dosage becomes exponential. The Dq value can also provide an estimate of an additional total dose required for each division of a single dose therapy into fractional doses. The additional dose is required to overcome the effect of sublethal damage repair that occurs when two sublethal doses are separated in time.
The linear quadratic model (surviving fraction=[…]) is used to fit radiation survival data to a continuously bending curve, where D is dose and α and β are constants. Alpha is the linear component, a measure of the initial slope that represents single-hit killing kinetics and dominates the radiation response at low doses. Beta is the quadratic component of cell killing, that represents multiple-hit killing and causes the curve to bend at higher doses. The alpha:beta ratio is the dose at which the linear and quadratic components of cell killing are equal. The more linear the response to killing of cells at low radiation dose, the higher is the value of alpha, and the greater is the radiosensitivity of the cells.
A semi-logarithmic plot of the mean+/−SEM from triplicate flasks in each experiment for these cells is shown. Logarithmically growing SQ-20B cells were treated with TSA (about 60 ng/ml) for about 24 h and the medium was replaced with fresh medium. Cells were exposed to a graded dose of gamma radiation. Clonogenic survivals were determined and fit to the single hit multitarget and the linear quadratic models for analysis.

SQ-20B cells [2] = experiment: IC50 determination by clonogenic cell kill (24 hour drug treatment, colonies scored after 2 to 3 weeks); settings: 24 hour treatment
Protocol: IC50 is defined as the concentration of the HDAC inhibitor that kills 50% of cells following treatment with the drug. To determine the IC50, a series of dilutions of drug is used over a broad range, for example 0-1.6 μg/ml. Approximately 100-400 cells are seeded into T-25 flasks in triplicate and treated with various concentrations of the drug. After a 24 hour treatment, the cells are washed with standard PBS (phosphate buffered saline) solution. Cells are then grown in fresh media for 2 to 3 weeks. Colonies are stained with crystal violet and scored. Concentrations of drugs showing 50% cell death represent the IC50 concentration.

SQ-20B cells [3] = experiment: Cell cycle distribution by flow cytometry (G1 phase); settings: for Duration of G1 arresting effect: about 24 hour exposure, TSA about 60 ng/ml, mimosine about 0.4 mM
Protocol: FIGS. 2A and 2B show cell cycle distributions of SQ20B cells after treatment with either TSA (FIG. 2A) or mock treatment (FIG. 2B) for 24 h. Cells were washed with fresh medium and exposed to about 10 Gy ionizing radiation. Cell nuclei were prepared for flow cytometric analysis using the procedure of Vindelov et al. (46). The samples were analyzed on a Becton-Dickinson FACStarplus instrument and the percentage of nuclei with G1, S, and G2/M DNA content was determined. […] The radiation sensitivity of cells is a function of the cell cycle. The lethal effect of radiation exposure is often observed only after subsequent cell division. Accordingly, the G1 phase is the more radiation sensitive phase. The compounds employed in the invention are observed to maintain cells in the G1 phase following radiation exposure. Comparing FIG. 2A to FIG. 2B, it can be seen that exposure of SQ-20B cells to TSA for about 24 hours prior to radiation results in an accumulation of more than about 70% of cells in the G1 phase and a maintenance of about 50% of cells for about 12 hours. After treatment with either TSA (panel A) or mock treatment (panel B) for about 24 h, cells were washed with fresh medium and exposed to about 10 Gy ionizing radiation. Cell nuclei were prepared for flow cytometric analysis. The samples were analyzed on a Becton-Dickinson FACStarplus® instrument and the percentage of nuclei with G1, S, and G2/M DNA content was determined. By comparison, irradiated mock-treated cells are not arrested.

SQ-20B cells [4] = experiment: Apoptotic index
Protocol: SQ-20B cells were exposed to about 10 Gy of irradiation. Time zero refers to cells that were subjected to sham irradiation. At the indicated times thereafter, attached and floating cells were collected and the number of apoptotic cells was determined as a percentage of the total number of cells (apoptotic index). Data shown represent mean values±SD from three independent experiments.
HDAC inhibitors are known to promote cancer cell death through apoptosis in vitro and in vivo. This has been a basis for the use of HDAC inhibitors at high concentrations as a single agent in chemical therapy. However, we have determined that the amount effective to synergize radiation-induced cell death is substantially less than the amount required to promote apoptosis. […] Concentrations that produce these effects can be determined for any HDAC inhibitory compound by one of skill in the art by observation of markers of apoptosis such as, for example, the apoptotic index and caspase activities.
Treatment with TSA (about 60 ng/ml) or mock treatment was followed by radiation (about 10 Gy). At about 24, about 48, and about 72 hours, attached and floating cells were collected and the number of apoptotic cells was determined as a percentage of the total number of cells (apoptotic index).

SMILES	Do (multitarget model radiosensitivity) (SQ-20B cells [1])	α (linear quadratic model) (SQ-20B cells [1])	β (linear quadratic model) (SQ-20B cells [1])	IC50 (concentration that kills 50% of cells) (SQ-20B cells [2])	Duration of G1 arresting effect (SQ-20B cells [3])	Apoptotic index, treated versus mock treated (SQ-20B cells [4]; about 60 ng/ml followed by about 10 Gy, about 24, 48, 72 hours)	Promotion of apoptosis (SQ-20B cells [4]; at about 3 to about 7 times the IC50)	Promotion of apoptosis (SQ-20B cells [4]; at concentrations of about 200-about 400 ng/ml)	Promotion of apoptosis (SQ-20B cells [4]; at the IC50 concentration of about 60 ng/ml)	Sensitization to ionizing radiation (SQ-20B cells [1]; head and neck tumor cells, at about the IC50 concentration)	Cells accumulated in the G1 phase (SQ-20B cells [3]; exposure for about 24 hours prior to radiation (about 10 Gy))	Cells maintained in the G1 phase (SQ-20B cells [3]; maintained for about 12 hours after about 10 Gy)
O=C(CCCCCCC(=O)Nc1ccccc1)NO [SAHA, suberonylanilide hydroxamic acid]	1.88	0.011	0.031									
CN(C)c1ccc(C(=O)NCCCCCCC(=O)NO)cc1 [M344]	1.65	0.077	0.033	0.32 µg/mL								
NC(Cn1ccc(=O)c(O)c1)C(=O)O (stereo not shown) [mimosine]					about 4 hours							
CC(/C=C/C(=O)NO)=C\[C@@H](C)C(=O)c1ccc(N(C)C)cc1 [TSA, trichostatin A]	1.64	0.126	0.030	about 60 ng/ml	about 12 hours	the number of treated and untreated apoptotic cells were similar	does promote apoptosis	did promote significant apoptosis	did not promote significant apoptosis	significantly sensitized head and neck tumor cells to ionizing radiation	more than 70%	about 50%
C/C=C1\NC(=O)[C@H]2CSSCC/C=C/[C@H](CC(=O)N[C@H](C(C)C)C(=O)N2)OC(=O)[C@H](C(C)C)NC1=O [FR, depsipsptide (FR 901228)]	1.65	0.104	0.033	0.005 µg/mL								
CN(C)c1ccc(C(=O)NCCCCCC(=O)NO)cc1 [MD85]	2.49	0.024	0.022	0.1 µg/mL								
